Assays:
[1] = Acute toxicity (LD50, Behrens-Karber method); format: in vivo, ICR mice; details: ip, mortality during 30 days; for LD50 at 720 h: mouse, in vivo
Method: Test compounds, dissolved or suspended in 0.5% aqueous CMC, were each intraperitoneally administered to ICR mice in a dose of 0.1 ml per 10 g body weight. LD50 (mg/kg) value of each test compound was calculated from the mortality of mice during 30 days by the Behrens-Karber method.

Leukemia L1210 = experiment: Activity against Leukemia L1210, intraperitoneal, increase in life span of mice; format: in vivo, female mice (BDF1 family); details: for ED (maximum ILS) / ED30: Mus musculus, L1210, ip; for ED (maximum ILS): read-out: O.D. (optimum dosage); for ED30: read-out: ILS30; for Survivors after 60 days / Max. ILS % / Therapeutic ratio TR: ip; for Survivors after 60 days: 6-membered group; for Max. ILS %: 60-day observation, versus control; for Therapeutic ratio TR: O.D./ILS30
How it was run: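 Dosing started 24 h after ip implantation of 1×10^5 L1210 cells into groups of 6 female BDF1 mice, by ip or oral route daily for 5 consecutive days. Survival was followed for 60 days; increase in life span was scored against untreated mice, with therapeutic ratio from optimum dose over ILS30 dose.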

[2] = ip once a day for 5 successive days, daily dosage giving maximum increase of life span
[3] = ip once a day for 5 successive days, daily dosage increasing average survival days by 30%

Compound | LD50 at 720 h [1] | ED (maximum ILS) (Leukemia L1210; [2]) | ED30 (Leukemia L1210; [3]) | Survivors after 60 days (Leukemia L1210) | Max. ILS % (Leukemia L1210) | Therapeutic ratio TR (Leukemia L1210) | LD50 ([1]; 43200 min) | O.D. (optimum dosage) (Leukemia L1210; [2]) | ILS30 (Leukemia L1210; [3])
CC(C)CO[C@H]1O[C@H](CO)[C@@H](O)[C@H](O)[C@H]1N(CC(C)C)C(=O)N(CCCl)N=O [Compound 61, 3-isobutyl-3-(isobutyl α-D-glucopyranose-2-yl)-1-(2-chloroethyl)-1-nitrosourea] | 595 mg/kg | 190 mg/kg | 5.86 mg/kg | 3/6 | > 340% | 32.4 | – | – | –
CCCN(C[C@H]1O[C@H](OC2CCCCC2)[C@H](O)[C@@H](O)[C@H]1O)C(=O)N(CCCl)N=O [Compound 98, 3-n-propyl-3-(cyclohexyl α-D-galactopyranose-6-yl)-1-(2-chloroethyl)-1-nitrosourea] | 600 mg/kg | 200 mg/kg | 6.45 mg/kg | 3/6 | > 350% | 31.0 | – | – | –
COCC(C)N(C(=O)N(CCCl)N=O)C1C(O)C(CO)OC(OC2CCCCC2)C1O [Compound 87, 3-(1-methyl-2-methoxyethyl)-3-(cyclohexyl α-D-glucopyranose-3-yl)-1-(2-chloroethyl)-1-nitrosourea] | 720 mg/kg | 200 mg/kg | 4.24 mg/kg | 6/6 | > 700% | 47.2 | – | – | –
CC(C)(C)N(C[C@H]1O[C@H](OC(c2ccccc2)C2CC2)[C@H](O)[C@@H](O)[C@@H]1O)C(=O)N(CCCl)N=O (stereo partly drawn) [Compound 201, 3-tert-butyl-3-(α-cyclopropylbenzyl α-D-glucopyranose-6-yl)-1-(2-chloroethyl)-1-nitrosourea] | 460 mg/kg | 150 mg/kg | 4.78 mg/kg | 6/6 | > 700% | 31.4 | – | – | –
CCC(C)N(C(=O)N(CCCl)N=O)[C@H]1[C@H](O)[C@H](O)[C@@H](OCc2ccccc2)O[C@@H]1CO (stereo partly drawn) [Compound 138, 3-sec-butyl-3-(benzylα-D-mannopyranose-4-yl)-1-(2-chloroethyl)-1-nitrosourea] | 370 mg/kg | 120 mg/kg | 4.26 mg/kg | 3/6 | > 350% | 28.2 | – | – | –
CC(C)(C)CN(C[C@H]1O[C@H](OCC2CCCO2)[C@H](O)[C@@H](O)[C@@H]1O)C(=O)N(CCCl)N=O (stereo partly drawn) [Compound 194, 3-neopentyl-3-(tetrahydrofurfuryl α-D-glucopyranose-6-yl)-1-(2-chloroethyl)-1-nitrosourea] | – | – | – | 6/6 | > 700% | 62.6 | 560 mg/kg | 160 mg/kg | 2.56 mg/kg
CCCCCCO[C@H]1O[C@H](CN(CC(C)C)C(=O)N(CCCl)N=O)[C@@H](O)[C@H](O)[C@H]1O [Compound 26, 3-isobutyl-3-(n-hexyl α-D-glucopyranose-6-yl)-1-(2-chloroethyl)-1-nitrosourea] | 415 mg/kg | 140 mg/kg | 4.63 mg/kg | 3/6 | > 370% | 30.2 | – | – | –
CC(C)CO[C@@H]1O[C@H](CN(CC(C)(C)C)C(=O)N(CCCl)N=O)[C@@H](O)[C@H](O)[C@H]1O [Compound 184, 3-neopentyl-3-(isobutyl β-D-glucopyranose-6-yl)-1-(2-chloroethyl)-1-nitrosourea] | 540 mg/kg | 170 mg/kg | 2.93 mg/kg | 6/6 | > 700% | 58.0 | – | – | –
C=C(C)CN(C(=O)N(CCCl)N=O)[C@H]1[C@@H](OC(C)CC)O[C@H](CO)[C@@H](O)[C@@H]1O (stereo partly drawn) [Compound 60, 3-(2-methyl-2-propenyl)-3-(sec-butyl α -D-glucopyranose-2-yl)-1-(2-chloroethyl)-1-nitrosourea] | 580 mg/kg | 200 mg/kg | 7.15 mg/kg | 3/6 | > 345% | 28.0 | – | – | –
CC(C)CO[C@H]1O[C@H](CN(C(=O)N(CCCl)N=O)C(C)C)[C@@H](O)[C@H](O)[C@H]1O [Compound 13, 3-isopropyl-3-(isobutyl α-D-glucopyranose-6-yl)-1-(2-chloroethyl)-1-nitrosourea] | 375 mg/kg | 120 mg/kg | 2.77 mg/kg | 6/6 | > 700% | 43.3 | – | – | –
CC(C)CO[C@H]1O[C@H](CO)[C@H](O)[C@H](N(CC(C)C)C(=O)N(CCCl)N=O)[C@H]1O [Compound 125, 3-isobutyl-3-(isobutyl α-D-galactopyranose-3-yl)-1-(2-chloroethyl)-1-nitrosourea] | 780 mg/kg | 250 mg/kg | 7.67 mg/kg | 3/6 | > 350% | 32.6 | – | – | –
CC(C)CO[C@@H]1O[C@H](CO)[C@@H](O)[C@H](O)[C@H]1N(C(=O)N(CCCl)N=O)C(C)(C)C [Compound 176, 3-tert-butyl-3-(isobutyl β-D-glucopyranose-2-yl)-1-(2-chloroethyl)-1-nitrosourea] | 620 mg/kg | 180 mg/kg | 5.9 mg/kg | 6/6 | > 700% | 30.5 | – | – | –
CC(C)CCN(C(=O)N(CCCl)N=O)[C@H]1[C@@H](O)[C@@H](CO)O[C@H](OCC(C)C)[C@@H]1O [Compound 127, 3-isoamyl-3-(isobutyl α-D-galactopyranose-3-yl)-1-(2-chloroethyl)-1-nitrosourea] | 600 mg/kg | 200 mg/kg | 6.56 mg/kg | 3/6 | > 340% | 30.5 | – | – | –
CCCN(C(=O)N(CCCl)N=O)C1C(CO)OC(OCC(C)C)C(O)C1O [Compound 90, 3-n-propyl-3-(isobutyl α-D-glucopyranose-4-yl)-1-(2-chloroethyl)-1-nitrosourea] | 325 mg/kg | 100 mg/kg | 3.07 mg/kg | 3/6 | > 350% | 32.6 | – | – | –
CCCCCCN(C[C@H]1O[C@H](OCCCC)[C@H](O)[C@@H](O)[C@@H]1O)C(=O)N(CCCl)N=O [Compound 7, 3-n-hexyl-3-(n-butyl α-D-glucopyranose-6-yl)-1-(2-chloroethyl)-1-nitrosourea] | 410 mg/kg | 140 mg/kg | 5.2 mg/kg | 5/6 | > 620% | 26.9 | – | – | –
CC=CCO[C@H]1O[C@H](CN(CC(C)C)C(=O)N(CCCl)N=O)[C@@H](O)[C@H](O)[C@H]1O [Compound 29, 3-isobutyl-3-(2-butenyl α-D-glucopyranose-6-yl)-1-(2-chloroethyl)-1-nitrosourea] | 410 mg/kg | 140 mg/kg | 3.64 mg/kg | 5/6 | > 620% | 38.5 | – | – | –
CCC(C)OC1OC(CO)C(O)C(N(CC(C)C)C(=O)N(CCCl)N=O)C1O [Compound 84, 3-isobutyl-3-(sec-butyl α-D-glucopyranose-3-yl)-1-(2-chloroethyl)-1-nitrosourea] | 695 mg/kg | 220 mg/kg | 5.8 mg/kg | 3/6 | > 355% | 37.9 | – | – | –
CCOCCCOC1OC(CO)C(O)C(N(CC(C)C)C(=O)N(CCCl)N=O)C1O [Compound 78, 3-isobutyl-3-(3-ethoxy-n-propyl α-D-glucopyranose-3-yl)-1-(2-chloroethyl)-1-nitrosourea] | 675 mg/kg | 200 mg/kg | 5.33 mg/kg | 3/6 | > 355% | 37.5 | – | – | –
CC(C)CO[C@H]1O[C@H](CN(CC(C)C)C(=O)N(CCCl)N=O)[C@@H](O)[C@H](O)[C@H]1O [Compound 14, 3-isobutyl-3-(isobutyl α-D-glucopyranose-6-yl)-1-(2-chloroethyl)-1-nitrosourea] | 510 mg/kg | 170 mg/kg | 3.32 mg/kg | 6/6 | > 700% | 51.2 | – | – | –
CC(C)CCO[C@H]1O[C@H](CN(CC(C)C)C(=O)N(CCCl)N=O)[C@@H](O)[C@H](O)[C@H]1O [Compound 25, 3-isobutyl-3-(isopentyl α-D-glucopyranose-6-yl)-1-(2-chloroethyl)-1-nitrosourea] | 450 mg/kg | 150 mg/kg | 4.2 mg/kg | 6/6 | > 700% | 35.7 | – | – | –
CC(C)CO[C@H]1O[C@H](CN(CC(C)C)C(=O)N(CCCl)N=O)[C@H](O)[C@H](O)[C@H]1O [Compound 107, 3-isobutyl-3-(isobutyl α-D-galactopyranose-6-yl)-1-(2-chloroethyl)-1-nitrosourea] | 650 mg/kg | 200 mg/kg | 5.87 mg/kg | 3/6 | > 360% | 34.1 | – | – | –
